Data taken from ChEMBL document CHEMBL5726667, “Substituted pyrrolo[2,3-b]pyrazines and substituted pyrazolo[3,4-b]pyridines as ITK and JAK kinase inhibitors” (2017).
pIC50: −log10 of the molar value.

Key:
[1] = target: T1, Tyrosine-protein kinase ITK/TSK (Homo sapiens, UniProt Q08881); test: In Vitro Inhibition Assay: ITK and JAK3 Kinase assay procedures:Enzyme was incubated with substrate peptide in reaction buffer in the presence and absence of test compounds or Staurosporine. All additions were done on ice, followed by the addition of ATP mix. Wells were uniformly mixed using an Eppendorff plate shaker and incubated at 30° C. for 20 min, and stopped by the addition of 5 μL of 3% …
T1 sequence (Q08881 whole entry): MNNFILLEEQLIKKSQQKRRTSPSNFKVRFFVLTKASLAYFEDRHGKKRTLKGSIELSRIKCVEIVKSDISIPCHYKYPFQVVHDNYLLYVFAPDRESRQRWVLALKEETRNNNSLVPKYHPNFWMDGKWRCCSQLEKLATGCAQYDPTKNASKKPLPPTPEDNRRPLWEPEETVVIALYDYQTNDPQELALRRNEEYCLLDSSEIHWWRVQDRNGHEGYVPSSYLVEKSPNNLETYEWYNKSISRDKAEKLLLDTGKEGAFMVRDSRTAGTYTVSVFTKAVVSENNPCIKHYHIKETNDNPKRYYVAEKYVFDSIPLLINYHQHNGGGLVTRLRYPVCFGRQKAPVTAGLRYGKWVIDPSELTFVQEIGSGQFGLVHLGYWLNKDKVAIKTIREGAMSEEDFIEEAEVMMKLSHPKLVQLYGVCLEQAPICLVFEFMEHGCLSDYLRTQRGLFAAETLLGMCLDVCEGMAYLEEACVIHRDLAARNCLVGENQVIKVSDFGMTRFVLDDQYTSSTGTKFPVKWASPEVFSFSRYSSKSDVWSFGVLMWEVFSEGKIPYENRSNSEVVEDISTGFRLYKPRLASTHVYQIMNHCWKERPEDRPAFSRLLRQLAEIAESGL
Description: (§1) All additions were done on ice, followed by the addition of ATP mix. Wells were uniformly mixed using an Eppendorff plate shaker and incubated at 30° C. for 20 min, and stopped by the addition of 5 μL of 3% phosphoric acid. Volume was increased to 100 μL by adding 0.8% phosphoric acid which was then transferred to PC filter mats (Millipore), pre-equilibrated with 70% ethanol and water. Plates were washed thrice with 100 μL 0.8% phosphoric acid and dried for an hour at 60° C. 100 μL scintillation fluid was added into each well and reading taken in Perkin Elmer TOPCOUNT beta counter.

[2] = target: T2, Tyrosine-protein kinase JAK3 (Homo sapiens, UniProt P52333); test: as above
T2 sequence (P52333 whole entry): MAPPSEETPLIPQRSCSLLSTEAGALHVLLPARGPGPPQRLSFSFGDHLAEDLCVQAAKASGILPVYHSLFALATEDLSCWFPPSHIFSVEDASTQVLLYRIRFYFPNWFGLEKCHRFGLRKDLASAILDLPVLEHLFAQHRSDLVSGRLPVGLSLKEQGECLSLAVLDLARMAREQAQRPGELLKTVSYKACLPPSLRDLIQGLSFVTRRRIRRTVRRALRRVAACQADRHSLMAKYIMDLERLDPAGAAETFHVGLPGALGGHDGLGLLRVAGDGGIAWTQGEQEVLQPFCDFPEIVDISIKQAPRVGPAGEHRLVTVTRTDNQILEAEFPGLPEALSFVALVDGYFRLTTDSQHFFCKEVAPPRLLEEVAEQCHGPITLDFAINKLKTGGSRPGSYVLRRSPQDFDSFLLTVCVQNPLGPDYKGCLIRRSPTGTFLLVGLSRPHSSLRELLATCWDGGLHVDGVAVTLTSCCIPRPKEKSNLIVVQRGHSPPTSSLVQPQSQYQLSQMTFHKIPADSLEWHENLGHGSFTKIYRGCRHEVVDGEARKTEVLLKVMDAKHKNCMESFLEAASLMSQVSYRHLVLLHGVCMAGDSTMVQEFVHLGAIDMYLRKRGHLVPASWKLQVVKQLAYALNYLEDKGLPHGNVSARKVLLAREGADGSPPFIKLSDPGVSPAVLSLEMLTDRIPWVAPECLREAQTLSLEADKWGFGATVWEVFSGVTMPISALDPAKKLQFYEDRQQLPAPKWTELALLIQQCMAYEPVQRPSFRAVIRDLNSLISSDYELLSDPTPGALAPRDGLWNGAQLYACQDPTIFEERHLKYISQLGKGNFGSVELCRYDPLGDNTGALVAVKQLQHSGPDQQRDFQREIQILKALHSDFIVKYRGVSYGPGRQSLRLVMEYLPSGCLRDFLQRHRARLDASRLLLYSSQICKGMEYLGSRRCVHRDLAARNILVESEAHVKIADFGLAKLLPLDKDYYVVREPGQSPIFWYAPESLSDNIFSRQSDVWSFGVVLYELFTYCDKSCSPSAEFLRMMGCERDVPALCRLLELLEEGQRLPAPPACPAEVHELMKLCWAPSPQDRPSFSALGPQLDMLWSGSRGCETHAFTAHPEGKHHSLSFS
Description: as §1

Row | Compound | pIC50 [1] | pIC50 [2]
1 | C=CC(=O)Nc1cccc(-c2cnc3[nH]ccc3c2)c1 | < 6.00 | < 6.00
2 | Cc1c[nH]c2ncc(-c3cccc(NC(=O)/C=C/N(C)C)c3)cc12 | < 6.00 | < 6.00
3 | Cc1c[nH]c2ncc(-c3ccc(Cl)c(NC(=O)/C=C/N(C)C)c3)cc12 | < 6.00 | < 6.00
4 | CC/C=C/C(=O)Nc1cccc(-c2cnc3[nH]cc(C)c3c2)c1 | < 6.00 | < 6.00
5 | Cc1c[nH]c2ncc(Nc3cccc(CC#N)c3)cc12 | < 6.00 | < 6.00
6 | C=CC(=O)Nc1cccc(-c2cnc3[nH]ccc3n2)c1 | < 6.00 | < 6.00

Results, then the compound that gave them:

Row | pIC50 [1] | pIC50 [2] | Compound
7 | < 7.00 | < 7.00 | C=CC(=O)Nc1cccc(-c2cnc3c(c2)CC(=O)N3)c1
8 | < 7.00 | < 7.00 | CC/C=C/C(=O)Nc1cccc(-c2cnc3[nH]nc(C)c3c2)c1
9 | < 7.00 | < 7.00 | CC/C=C/C(=O)Nc1cc(-c2cnc3[nH]cc(C)c3c2)ccc1Cl
10 | < 7.00 | < 7.00 | C=CC(=O)Nc1cccc(-c2cnc3[nH]cc(-c4cc5ccc(Cl)cc5[nH]4)c3n2)c1
11 | < 7.00 | < 7.00 | C=CC(=O)Nc1cccc(-c2cnc3[nH]cc(-c4cc(F)cc(F)c4OC)c3n2)c1
12 | > 7.00 | > 7.00 | COc1c(F)cc(F)cc1-c1c[nH]c2ncc(-c3cc(NC(=O)/C(C)=C/C(C)(C)C)ccc3F)cc12
